Assay results as given in ChEMBL document CHEMBL1649575, “Antimicrobial susceptibility and mutations involved in clarithromycin resistance in Helicobacter pylori isolates from patients in the western central region of Colombia” (2009).
The source made the active and inactive calls. The calls are words filed in the database; no cut-off is given here.

What was measured:
Helicobacter pylori [1] = assay: Antimicrobial activity against Helicobacter pylori clinical isolate expressing 23S rRNA A2142G mutant by Etest; assay type: functional
Helicobacter pylori [2] = assay: Antimicrobial activity against Helicobacter pylori clinical isolate expressing 23S rRNA A2143G mutant by Etest; assay type: functional, organism-based
Helicobacter pylori [3] = assay: Antimicrobial activity against Helicobacter pylori clinical isolate by Etest; assay type: functional, organism-based

SMILES: CC[C@H]1OC(=O)[C@H](C)[C@@H](O[C@H]2C[C@@](C)(OC)[C@@H](O)[C@H](C)O2)[C@H](C)[C@@H](O[C@@H]2O[C@H](C)C[C@H](N(C)C)[C@H]2O)[C@](C)(OC)C[C@@H](C)C(=O)[C@H](C)[C@@H](O)[C@]1(C)O [CLARITHROMYCIN]
- MIC (Helicobacter pylori [1]): > 256 µg/mL
- Activity (Helicobacter pylori [2]): inactive

SMILES: CN(C)[C@@H]1C(O)=C(C(N)=O)C(=O)[C@@]2(O)C(O)=C3C(=O)c4c(O)cccc4[C@@](C)(O)[C@H]3C[C@@H]12
- Activity (Helicobacter pylori [3]): Active
